According to patent US5530019A, “Indole derivatives useful as testosterone 5α-reductase inhibitors” (Fujisawa Pharmaceutical Co., Ltd., priority 1993, dated 1996):

Target: T1, testosterone 5α-reductase (Rattus norvegicus, UniProt P31214)
T1 construct: The prostates were drained, minced, and then homogenized in 3 -4 tissue volumes of medium A; from tissue; host or cells: ventral prostate of mature male Sprague-Dawley rats, resuspended 3,000 g pellet
T1 sequence (P31214 1-254): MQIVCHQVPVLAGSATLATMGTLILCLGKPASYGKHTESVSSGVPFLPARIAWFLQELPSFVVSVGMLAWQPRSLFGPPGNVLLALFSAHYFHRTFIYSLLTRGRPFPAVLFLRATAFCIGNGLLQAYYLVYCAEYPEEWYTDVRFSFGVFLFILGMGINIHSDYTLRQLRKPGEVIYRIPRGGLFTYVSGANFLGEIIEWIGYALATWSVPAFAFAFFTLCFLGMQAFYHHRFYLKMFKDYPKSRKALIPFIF
Assay: Inhibitory activity on testosterone 5α-reductase in rats (rat ventral prostate suspension, 3H-testosterone)
Type: biochemical, rat (Spraque-Dawley male rats)
Settings: rat prostatic 5α-reductase; 2.2×10^-9 M testosterone, 50 μM NADPH, pH 6.5, 37° C., 30 minutes
Description: [2]Inhibitory activity on testosterone 5α-reductase in rats:
1,2,6,7-^3 H-testosterone (85-105 Ci/mmol) is a mixture of 1,2,6,7-3H-testosterone and testosterone which includes 85-105 Ci of 1,2,6,7-^3 H-testosterone per mmol of testosterone and is purchased from New England Nuclear, Boston, Mass., U.S.A.
Aquazol-2 (Aquazol-2 Universal LSC Cocktail) trademark, purchased from New England Nuclear, Boston, Mass., U.S.A. ii) Preparation of prostatic testosterone 5α-reductase
Mature Spraque-Dawley male rats (7-8 weeks old) were sacrificed by diethyl ether. The ventral prostates were dissected to be free of their capsules and their combined volume was measured by displacement in several milliliters of ice-cold medium A (0.32M sucrose, 0.1 mM dithiothreitol and 20 mM sodium phosphate, pH 6.5). Unless specified, all the following procedures were carried out at 0 -4. The prostates were drained, minced, and then homogenized in 3 -4 tissue volumes of medium A with Pyrex-glass homogenizer. […]
The reaction solution contains 1 mM dithiothreitol, 40 mM sodium phosphate pH 6.5, 50 μM NADPH, 1,2,6,7-^3 H-testosterone/testosterone (2.2×10^-9 M) and the suspension prepared above ([…]) in a total volume of 565 μl. […] The radioactivity was determined in 5 ml of Aquazol-2 in Packard scintillation counter (PACKARD TRI-CARB 4530), and an inhibitory ratio was calculated.

## CCCCCCCCCCC(=O)c1cn(CCCC(=O)O)c2ccccc12 [(1), 4-(3-Undecanoyl-1-indolyl)butyric acid]
  IC50: 0.44 nM
